Earlier results, collected in US20100028426A1, “TIME-SPECIFIC DELAYED/PULSATILE RELEASE DOSAGE FORMS” (POLICHEM S.A., priority 2007, published 2010).

Experiments:
[1] = in vivo

## CCN(C(C)=O)c1cccc(-c2ccnc3c(C#N)cnn23)c1 [Zaleplon]
Sleep disorders; in vivo
  time to sleep onset (TSO): effective in shortening the time to sleep onset
Sleep disorders; oral immediate release formulation taken at bed time
  total sleep time and number of awakening: neither increases total sleep time, nor decreases the number of awakening
[1]
  time to peak concentration (t max): approximately 1 hour
